Experimental data as given in ChEMBL document CHEMBL3739421, “Discovery of oxybisbenzoylamides as a new class of antimalarial agents” (Medchemcomm, 2015).
Activity calls are given as the source filed them. The rule behind the calls is not given here.

What was measured:
[1] = test system: Plasmodium falciparum; test: Antimalarial activity against Chloroquine-sensitive Plasmodium falciparum D10 assessed as parasite growth inhibition after 72 hrs by lactate dehydrogenase assay; type: functional, organism-based; details: D10, 72 h
[2] = test system: Plasmodium falciparum; test: Antimalarial activity against Chloroquine-resistant Plasmodium falciparum W2 assessed as parasite growth inhibition after 72 hrs by lactate dehydrogenase assay; type: functional, organism-based; details: W2, 72 h
[3] = molecular target: Plasmepsin II (Plasmodium falciparum) (UniProt P46925); test: Inhibition of Plasmodium falciparum recombinant PLM2 expressed in Escherichia coli BL21(DE3) pLysS cells using Lys-GluPhe-Val-Phe-NPhe-Ala-Leu-Lys as substrate at 1 uM by spectrophotometry
Sequence of Plasmepsin II (Plasmodium falciparum) (P46925 125-453 limits assumed): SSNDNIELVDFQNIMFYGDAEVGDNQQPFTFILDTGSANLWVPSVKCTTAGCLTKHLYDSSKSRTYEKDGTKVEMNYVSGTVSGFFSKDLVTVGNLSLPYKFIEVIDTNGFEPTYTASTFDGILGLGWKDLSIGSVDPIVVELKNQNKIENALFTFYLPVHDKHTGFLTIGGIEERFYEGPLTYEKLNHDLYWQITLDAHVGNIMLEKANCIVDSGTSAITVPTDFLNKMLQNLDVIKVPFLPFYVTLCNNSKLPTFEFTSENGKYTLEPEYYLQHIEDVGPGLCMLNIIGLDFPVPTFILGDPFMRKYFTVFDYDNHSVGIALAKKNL

[4] = Inhibition of beta-haematin formation after 18 hrs by spectrophotometric analysis relative to haematin; type: physicochemical
[5] = Cytotoxicity against human HMEC1 cells assessed as growth inhibition after 72 hrs by MTT assay; type: cell-based; details: HMEC-1, 72 h
[6] = Cytotoxicity against human fibroblasts assessed as growth inhibition after 72 hrs by MTT assay; type: cell-based; details: Fibroblast
[7] = Therapeutic index, ratio of IC50 for HMEC1 cells to IC50 for Chloroquine-sensitive Plasmodium falciparum D10; type: cell-based; details: human; read-out: Ratio IC50
[8] = Therapeutic index, ratio of IC50 for human fibroblasts to IC50 for Chloroquine-sensitive Plasmodium falciparum D10; details: read-out: Ratio IC50
[9] = Therapeutic index, ratio of IC50 for HMEC1 cells to IC50 for Chloroquine-resistant Plasmodium falciparum W2; type: cell-based; details: human; read-out: Ratio IC50
[10] = Therapeutic index, ratio of IC50 for human fibroblasts to IC50 for Chloroquine-resistant Plasmodium falciparum W2; details: read-out: Ratio IC50

| SMILES | IC50 [1] | IC50 [2] | inhibition [3] | IC50 [4] | IC50 [6] | further results |
| --- | --- | --- | --- | --- | --- | --- |
| CCCCNC(=O)[C@H](CC(C)C)NC(=O)[C@@H](NC(=O)c1ccc(Oc2ccc(C(=O)N[C@H](C(=O)N[C@@H](CC(C)C)C(=O)NCCCC)[C@@H](C)CC)cc2)cc1)[C@@H](C)CC | 1980 nM | 1620 nM | – | – | – | – |
| CCCCNC(=O)[C@H](CC(C)C)NC(=O)[C@@H](NC(=O)c1ccc(Oc2ccc(C(=O)N[C@@H](CC(C)C)C(=O)N[C@@H](C)C(=O)NCCCC(C)Nc3cc(OC)cc4cccnc34)cc2)cc1)[C@@H](C)CC (stereo partly drawn) | 37 nM | 104 nM | inactive | > 8 equiv | – | – |
| CCN(CC)CCCC(C)Nc1ccnc2cc(Cl)ccc12 (stereo not drawn) [CHLOROQUINE] | – | – | – | 1.36 equiv | – | – |
| CCCCNC(=O)[C@H](CC(C)C)NC(=O)[C@@H](NC(=O)c1ccc(Oc2ccc(C(=O)N[C@@H](C)C(=O)NCCCNc3ccnc4cc(Cl)ccc34)cc2)cc1)[C@@H](C)CC | 43 nM | 39 nM | inactive | 0.79 equiv | 18000 nM | IC50 [5]: 17600 nM; selectivity ratio [7]: 450; selectivity ratio [8]: 450; selectivity ratio [9]: 450; selectivity ratio [10]: 450 |
| CCCCNC(=O)[C@H](CC(C)C)NC(=O)[C@@H](NC(=O)c1ccc(Oc2ccc(C(=O)N[C@@H](CC(C)C)C(=O)NCCCN(CC)CC)cc2)cc1)[C@@H](C)CC | 121 nM | 103 nM | – | – | 16300 nM | selectivity ratio [8]: > 100; selectivity ratio [10]: > 100 |
| CCCCNC(=O)[C@H](CC(C)C)NC(=O)c1ccc(Oc2ccc(C(=O)N[C@@H](CC(C)C)C(=O)NCCN(CC)CC)cc2)cc1 | 357 nM | 314 nM | – | – | 23000 nM | – |
| CCN(CC)CCNC(=O)[C@H](CC(C)C)NC(=O)c1ccc(Oc2ccccc2)cc1 | > 5 µg/mL | > 5 µg/mL | – | – | – | – |
| COc1cc(NC(C)CCCN)c2ncccc2c1 (stereo not drawn) [PRIMAQUINE] | – | – | – | > 10 equiv | – | – |
| CCCCNC(=O)[C@H](CC(C)C)NC(=O)[C@@H](NC(=O)c1ccc(Oc2ccc(C(=O)N[C@@H](CC(C)C)C(=O)N[C@@H](C)C(=O)NCCCNc3ccnc4ccccc34)cc2)cc1)[C@@H](C)CC | 63 nM | 54 nM | inactive | – | – | – |
| CCCCNC(=O)[C@H](CC(C)C)NC(=O)[C@@H](NC(=O)c1ccc(Oc2ccc(C(=O)N[C@@H](CC(C)C)C(=O)N[C@@H](C)C(=O)NCCN(CC)CC)cc2)cc1)[C@@H](C)CC | 345 nM | 143 nM | – | – | – | – |
